We go through one molecule from patent publication US20210228545A1, “METHODS OF TREATING CONDITIONS RELATED TO THE S1P1 RECEPTOR” (Arena Pharmaceuticals, Inc., priority 2018, published 2021).

For one data set, the target named is T1, OCT1 (Homo sapiens, UniProt O15245).
T1 construct: expressed in transfected cells; host or cells: HEK293
T1 sequence (O15245 1-554): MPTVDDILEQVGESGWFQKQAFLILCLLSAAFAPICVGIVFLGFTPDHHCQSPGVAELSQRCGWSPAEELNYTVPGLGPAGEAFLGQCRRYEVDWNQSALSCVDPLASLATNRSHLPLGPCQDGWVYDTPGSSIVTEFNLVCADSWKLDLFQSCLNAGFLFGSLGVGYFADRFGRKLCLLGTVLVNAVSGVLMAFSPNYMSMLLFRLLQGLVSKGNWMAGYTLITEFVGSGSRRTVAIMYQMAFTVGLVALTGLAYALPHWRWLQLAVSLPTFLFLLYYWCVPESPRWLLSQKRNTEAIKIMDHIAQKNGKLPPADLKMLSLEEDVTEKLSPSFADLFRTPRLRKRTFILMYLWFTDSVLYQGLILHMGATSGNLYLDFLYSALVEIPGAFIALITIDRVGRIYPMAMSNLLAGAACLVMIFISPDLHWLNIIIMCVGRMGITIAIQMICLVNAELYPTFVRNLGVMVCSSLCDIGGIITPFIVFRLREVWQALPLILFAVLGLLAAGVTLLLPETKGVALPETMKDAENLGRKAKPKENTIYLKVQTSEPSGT
Description: Transporter substrate evaluation, HEK293 cells. In kind it is in vitro ADME. The settings on record: 1 and 10 μM.

For a further data set, the target named is T2, MATE2-K (Homo sapiens, UniProt Q86VL8).
T2 construct: expressed in transfected cells; host or cells: HEK293
T2 sequence (Q86VL8 1-566 isoform Q86VL8-3): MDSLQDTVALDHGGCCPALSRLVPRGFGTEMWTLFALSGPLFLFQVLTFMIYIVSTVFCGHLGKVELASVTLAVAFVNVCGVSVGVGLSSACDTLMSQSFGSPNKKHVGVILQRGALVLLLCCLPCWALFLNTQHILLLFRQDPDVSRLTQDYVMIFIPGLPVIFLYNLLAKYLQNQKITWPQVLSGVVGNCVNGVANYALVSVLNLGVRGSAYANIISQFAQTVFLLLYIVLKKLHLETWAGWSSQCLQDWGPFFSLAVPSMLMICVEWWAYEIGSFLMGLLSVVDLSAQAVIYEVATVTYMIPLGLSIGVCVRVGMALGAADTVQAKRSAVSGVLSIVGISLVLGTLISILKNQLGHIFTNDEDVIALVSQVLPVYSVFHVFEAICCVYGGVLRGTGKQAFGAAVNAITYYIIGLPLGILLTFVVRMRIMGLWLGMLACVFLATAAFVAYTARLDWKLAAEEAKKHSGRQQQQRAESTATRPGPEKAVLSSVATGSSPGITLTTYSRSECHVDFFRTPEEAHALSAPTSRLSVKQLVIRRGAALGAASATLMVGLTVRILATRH
Description: Transporter inhibition, HEK293 cells. In kind it is in vitro ADME.

A further data set addresses T3, BCRP (Homo sapiens, UniProt Q9UNQ0).
T3 sequence (Q9UNQ0 1-655): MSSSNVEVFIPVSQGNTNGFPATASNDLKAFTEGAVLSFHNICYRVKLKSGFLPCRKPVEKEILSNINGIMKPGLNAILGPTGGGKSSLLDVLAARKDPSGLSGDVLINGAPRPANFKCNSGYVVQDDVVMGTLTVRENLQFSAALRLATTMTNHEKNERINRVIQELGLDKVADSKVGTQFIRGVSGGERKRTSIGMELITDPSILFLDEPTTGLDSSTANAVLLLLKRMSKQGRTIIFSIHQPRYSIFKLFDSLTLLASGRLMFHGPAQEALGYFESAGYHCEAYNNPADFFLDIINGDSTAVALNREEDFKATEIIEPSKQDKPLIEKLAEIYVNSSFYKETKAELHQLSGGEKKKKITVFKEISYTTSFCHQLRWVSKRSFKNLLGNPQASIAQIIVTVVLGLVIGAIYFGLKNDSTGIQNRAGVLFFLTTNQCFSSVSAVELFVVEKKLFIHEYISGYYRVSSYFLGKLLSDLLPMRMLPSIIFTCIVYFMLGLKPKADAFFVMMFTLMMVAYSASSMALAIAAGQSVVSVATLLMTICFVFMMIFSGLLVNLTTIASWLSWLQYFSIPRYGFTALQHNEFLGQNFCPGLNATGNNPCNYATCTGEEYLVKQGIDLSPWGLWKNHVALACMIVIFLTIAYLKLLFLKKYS
Description: Transporter inhibition, MDCKII-BCRP cells. In kind it is in vitro ADME.

In another data set the target is T4, OATP1B1 (Homo sapiens, UniProt Q9Y6L6).
T4 sequence (Q9Y6L6 1-691): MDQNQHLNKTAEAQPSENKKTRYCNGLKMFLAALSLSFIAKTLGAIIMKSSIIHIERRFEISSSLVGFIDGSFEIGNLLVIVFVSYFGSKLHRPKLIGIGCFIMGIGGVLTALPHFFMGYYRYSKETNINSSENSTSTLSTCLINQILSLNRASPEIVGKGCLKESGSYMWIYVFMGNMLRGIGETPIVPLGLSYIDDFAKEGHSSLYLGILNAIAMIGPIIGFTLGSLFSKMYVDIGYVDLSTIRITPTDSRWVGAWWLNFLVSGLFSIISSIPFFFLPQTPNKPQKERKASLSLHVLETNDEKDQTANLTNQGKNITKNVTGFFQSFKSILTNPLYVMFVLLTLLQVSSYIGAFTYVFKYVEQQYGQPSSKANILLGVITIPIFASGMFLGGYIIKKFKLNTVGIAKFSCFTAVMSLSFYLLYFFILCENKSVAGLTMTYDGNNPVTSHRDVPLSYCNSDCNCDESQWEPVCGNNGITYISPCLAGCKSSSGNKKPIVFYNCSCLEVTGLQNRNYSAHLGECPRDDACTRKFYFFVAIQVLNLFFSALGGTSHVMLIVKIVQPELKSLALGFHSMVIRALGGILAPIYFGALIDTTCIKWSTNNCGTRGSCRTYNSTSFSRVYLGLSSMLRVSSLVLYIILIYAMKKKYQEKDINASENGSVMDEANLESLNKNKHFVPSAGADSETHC
In words: Transporter inhibition, HEK293 cells.

The next data set concerns the target rCYP2C8 (Homo sapiens, UniProt P10632). In words: Compound 1 loss on incubation with rCYP enzymes. Conditions: 120 minutes of incubation. In kind it is in vitro ADME.
In another data set the test system is CYP1A2 mRNA. Description: CYP induction in cultured human hepatocytes. In kind it is in vitro ADME. The settings on record: up to 10 μM.
A further data set has as its target T5, UGT1A1 (Homo sapiens, UniProt P22309).
T5 construct: human liver microsomes from a pool of 200 individuals; from tissue; host or cells: human liver microsomes, pool of 200 individuals
Description: Direct inhibition of UGT activity in human liver microsomes. In kind it is in vitro ADME. Conditions: highest concentration tested (10 μM). An excerpt:
(§1) Known metabolism-dependent and/or direct inhibitors of CYP and UGT enzymes were included as positive controls, as applicable.

A further data set concerns the target T6, UGT1A6 (Homo sapiens, UniProt P19224).
T6 construct: human liver microsomes from a pool of 200 individuals; from tissue; host or cells: human liver microsomes, pool of 200 individuals
The data set is described as above. In kind it is in vitro ADME. Conditions: highest concentration tested (10 μM).
Excerpt: as §1

The next data set concerns the target T7, BSEP (Homo sapiens, UniProt O95342).
T7 construct: host or cells: membrane vesicles
Description: Transporter inhibition, vesicular transport assay. In kind it is in vitro ADME.

In another data set the test system is CYP3A4. Description: CYP induction in cultured human hepatocytes. Conditions: criteria >2-fold mRNA increase and ≥20% of positive control. In kind it is in vitro ADME.
A further data set relates to CYP2B6. Description: CYP induction in cultured human hepatocytes. In kind it is in vitro ADME. Conditions: criteria >2-fold mRNA increase and ≥20% of positive control.
Data set [1] can be described thus: Phase 1 single dosing study: safety and tolerability.

Broadly, the IC50 is the midpoint of a concentration-inhibition curve. By inhibition is commonly meant the share of the control response that was lost under treatment. The low end stands for a weak effect, the high end for a strong effect.

The structures appear in SMILES notation. Entries after “also recorded” stand apart in the source; their conditions may differ.

T7 sequence (O95342 whole entry): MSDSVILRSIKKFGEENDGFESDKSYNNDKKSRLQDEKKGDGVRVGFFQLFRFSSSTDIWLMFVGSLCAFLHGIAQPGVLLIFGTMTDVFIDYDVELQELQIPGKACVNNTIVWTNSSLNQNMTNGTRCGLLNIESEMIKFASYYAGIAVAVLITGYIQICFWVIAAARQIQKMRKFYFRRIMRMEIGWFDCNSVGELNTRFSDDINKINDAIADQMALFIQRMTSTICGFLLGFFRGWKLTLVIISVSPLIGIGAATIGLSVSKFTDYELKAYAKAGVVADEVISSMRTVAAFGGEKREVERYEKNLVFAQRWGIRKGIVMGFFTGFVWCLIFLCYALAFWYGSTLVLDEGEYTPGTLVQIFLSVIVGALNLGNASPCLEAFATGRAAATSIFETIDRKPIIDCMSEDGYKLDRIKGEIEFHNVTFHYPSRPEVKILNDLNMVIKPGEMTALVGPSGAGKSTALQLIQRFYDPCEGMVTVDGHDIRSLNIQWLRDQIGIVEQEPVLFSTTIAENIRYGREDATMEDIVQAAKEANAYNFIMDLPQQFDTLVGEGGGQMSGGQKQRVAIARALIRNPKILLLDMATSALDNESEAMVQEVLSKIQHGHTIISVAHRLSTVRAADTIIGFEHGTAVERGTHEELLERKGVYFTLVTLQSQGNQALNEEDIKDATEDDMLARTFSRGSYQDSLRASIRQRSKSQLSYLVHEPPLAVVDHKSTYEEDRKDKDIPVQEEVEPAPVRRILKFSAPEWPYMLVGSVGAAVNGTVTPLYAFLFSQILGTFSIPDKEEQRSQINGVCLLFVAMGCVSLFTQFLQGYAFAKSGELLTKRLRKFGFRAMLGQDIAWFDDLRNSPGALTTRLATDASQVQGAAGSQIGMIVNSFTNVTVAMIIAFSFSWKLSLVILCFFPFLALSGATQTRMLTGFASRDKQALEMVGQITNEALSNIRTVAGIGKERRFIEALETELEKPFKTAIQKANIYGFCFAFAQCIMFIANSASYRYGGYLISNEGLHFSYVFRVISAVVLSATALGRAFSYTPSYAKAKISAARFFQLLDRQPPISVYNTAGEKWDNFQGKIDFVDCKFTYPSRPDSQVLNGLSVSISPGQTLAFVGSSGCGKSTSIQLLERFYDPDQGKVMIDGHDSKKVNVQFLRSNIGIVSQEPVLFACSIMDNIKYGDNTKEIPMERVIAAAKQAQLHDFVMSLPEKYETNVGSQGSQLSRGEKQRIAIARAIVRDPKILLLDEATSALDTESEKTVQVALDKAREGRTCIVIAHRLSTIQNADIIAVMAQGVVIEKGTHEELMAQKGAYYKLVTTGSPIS
rCYP2C8, sequence (P10632 whole entry): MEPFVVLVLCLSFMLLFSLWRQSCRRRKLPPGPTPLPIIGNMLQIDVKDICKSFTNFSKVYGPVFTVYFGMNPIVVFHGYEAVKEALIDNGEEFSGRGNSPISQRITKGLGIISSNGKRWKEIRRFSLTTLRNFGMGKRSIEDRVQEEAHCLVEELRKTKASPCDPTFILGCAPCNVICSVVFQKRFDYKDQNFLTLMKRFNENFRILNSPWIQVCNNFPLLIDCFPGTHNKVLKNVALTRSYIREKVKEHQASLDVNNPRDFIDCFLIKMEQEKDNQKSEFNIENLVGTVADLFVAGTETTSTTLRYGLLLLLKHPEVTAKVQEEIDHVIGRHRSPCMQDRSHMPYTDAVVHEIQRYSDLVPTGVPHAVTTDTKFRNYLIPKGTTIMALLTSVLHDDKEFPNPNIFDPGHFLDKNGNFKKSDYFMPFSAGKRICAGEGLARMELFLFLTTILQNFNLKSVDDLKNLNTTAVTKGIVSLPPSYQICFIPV
T6 sequence (P19224 27-532): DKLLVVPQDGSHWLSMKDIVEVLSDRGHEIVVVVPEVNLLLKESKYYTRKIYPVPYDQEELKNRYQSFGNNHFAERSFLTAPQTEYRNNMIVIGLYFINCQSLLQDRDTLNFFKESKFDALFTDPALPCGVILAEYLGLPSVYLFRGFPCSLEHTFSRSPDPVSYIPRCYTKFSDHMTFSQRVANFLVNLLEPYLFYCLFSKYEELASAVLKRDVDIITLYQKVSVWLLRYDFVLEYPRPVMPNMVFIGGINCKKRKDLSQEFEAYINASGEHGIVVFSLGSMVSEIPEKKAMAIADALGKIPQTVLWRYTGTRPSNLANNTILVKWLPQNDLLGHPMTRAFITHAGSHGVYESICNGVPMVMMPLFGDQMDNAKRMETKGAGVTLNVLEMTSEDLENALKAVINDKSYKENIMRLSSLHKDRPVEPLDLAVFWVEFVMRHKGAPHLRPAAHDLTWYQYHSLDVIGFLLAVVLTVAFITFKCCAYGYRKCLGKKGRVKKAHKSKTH
T5 sequence (P22309 26-533): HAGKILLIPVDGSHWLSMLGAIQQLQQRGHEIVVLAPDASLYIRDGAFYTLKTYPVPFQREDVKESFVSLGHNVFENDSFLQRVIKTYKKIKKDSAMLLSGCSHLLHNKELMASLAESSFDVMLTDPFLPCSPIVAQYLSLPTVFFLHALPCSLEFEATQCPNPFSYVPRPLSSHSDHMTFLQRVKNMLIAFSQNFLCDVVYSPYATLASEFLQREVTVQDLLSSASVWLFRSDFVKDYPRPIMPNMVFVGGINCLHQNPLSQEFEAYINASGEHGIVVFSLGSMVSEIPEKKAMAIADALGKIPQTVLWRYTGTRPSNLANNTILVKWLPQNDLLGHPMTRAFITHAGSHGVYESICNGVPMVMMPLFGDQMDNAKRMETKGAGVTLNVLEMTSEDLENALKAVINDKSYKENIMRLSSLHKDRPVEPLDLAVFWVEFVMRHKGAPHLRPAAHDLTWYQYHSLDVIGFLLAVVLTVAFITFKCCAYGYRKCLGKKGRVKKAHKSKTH

Take `O=C(O)C[C@H]1CCc2c1[nH]c1ccc(OCc3ccc(C4CCCC4)c(C(F)(F)F)c3)cc21` [Compound 1, (R)-2-(7-(4-cyclopentyl-3-(trifluoromethyl)benzyloxy)-1,2,3,4-tetrahydrocyclopenta[b]indol-3-yl)acetic acid]: the “Potential substrate of OCT1” value on OCT1 (HEK293 cells) is “not a substrate of OCT1 and not a substrate and No”. Also, the “Uptake ratio into OCT1-expressing cells” value on OCT1 (absence and presence of quinidine (100 μM)) is on record as “below two”. Besides, the IC50 is over 10 µM on MATE2-K (HEK293 cells, [14C]-metformin (10 μM), 1 and 10 μM tested); 35.7 µM against BCRP (MDCKII-BCRP cells, prazosin (1 μM), 0.03 to 30 μM); over 10 µM at BSEP (vesicles, [3H]-taurocholic acid (0.4 μM), 1 and 10 μM tested). Further, on MATE2-K (up to 10 μM), the “Inhibition of MATE2-K” value is listed as “less than 50%”. Besides, at BCRP (10 and 100 μM, post-assay TEER below acceptance criteria), the “Reduction of corrected efflux ratio of prazosin (1 μM) across MDCKII-BCRP cells” value is reported as “more than 50%”. Further, on OATP1B1 (1 μM Compound 1), the OATP1B1 inhibition entry is listed as “no OATP1B1 inhibition”. Further, the “Reduction of uptake rate of [3H]-estradiol-17β-glucuronide (50 nM) into OATP1B1-expressing cells” value at OATP1B1 (10 μM Compound 1) is about 50%. For the same molecule, the “Compound 1 loss with rCYP2C8” value at rCYP2C8 is listed as “up to 75%”. Besides, the “Induction potential on CYP1A2 mRNA” value with CYP1A2 mRNA is reported as “no induction potential; also recorded: not a potential inducer”. Also, the figures for the inhibition at 10 µM at UGT1A1 and against UGT1A6 were at most 28% and at most 48%, respectively. The “Reduction of ATP-dependent uptake of [3H]-taurocholic acid in BSEP-expressing vesicles (inhibition)” value at BSEP (1 and 10 μM) is listed as “less than 50%”. In addition, in the data set with CYP3A4, the “Induction potential for CYP3A4” value is “no induction potential; also recorded: not a potential inducer”. In addition, the “Induction potential for CYP2B6” value in the data set on CYP2B6 is listed as “no induction potential; also recorded: not a potential inducer”. Besides, the “Deaths or serious adverse events” value in [1] (single doses 0.1 to 5 mg) is reported as “no deaths or serious adverse events”. In addition, the Maximum tolerated dose in data set [1] (single dosing, L-arginine salt) turned out to be 3 mg.
